The term solubility denotes the dissolved amount per volume that the medium holds.

The nature of data set [1]: Solubility of micronized FPV in different organic solvents (visual inspection). In kind it is physicochemical. Conditions: thermodynamic from solid. An excerpt: In order to check for a possible improvement of FPV solubility in an aqueous solvent, it was decided to follow the protocol of WO2017009480. As a first task it was necessary to find a suitable organic solvent for pre-dissolution of FPV prior to adding the pre-dissolved FPV to the buffered aqueous solvent. The results are depicted in Table 1 Table 1: Solubility of micronized FPV in different organic solvents

For data set [2] the following is noted: cited from earlier work.
A short description of data set [3]: Solubility and storage stability of aqueous FPV formulations (RP-HPLC on day 0 and day 7). Conditions: for solubility: thermodynamic from solid; for highest starting concentration of dissolved FPV: HPLC day 0, calculated approx. 17 mg/ml. In kind it is physicochemical. As to the method:
In order to determine the maximum solubility of FPV in water various samples of either raw or micronized FPV powder have been prepared. […] In this experimental set-up, the FPV starting concentration was adjusted to a calculated value of 5 mg/ml. After admixture of all ingredients the experimental samples contained 10 %v/v PEG 400, 2 %wt dexpanthenol, and either a citrate or a phosphate buffer, or a combination of both, adjusted to pH 5.5. The selected saponins were tested each in three concentrations, i.e. escin: 0.10, 0.25 and 0.50% w/v, and glycyrrhizin: 1.0, 2.5 and 5.0% w/v. Glycyrrhizin was applied in the form of dipotassium glycyrrhizinate in this and all other examples. For the quantification of FPV contents in the experimental sample formulations, an RP-HPLC method using a Zorbax Eclipse Plus C18 column from Agilent Technologies was applied and adapted for the present purpose. The results of the storage stability test of the various FPV containing samples are depicted in Table 2. Table 2: Storage stability of different aqueous formulations of 5 mg/ml FPV In an attempt to raise the starting concentration of FPV in a pharmaceutically acceptable aqueous solvent the PEG 400 / FPV stock solution was applied in an amount such as to increase the theoretical / calculated FPV concentration from 5 to about 10mg/ml, more precisely to 9.5mg/ml. After admixture of the predetermined portion of PEG 400 solvent comprising FPV to the aqueous buffer solution the resulting samples contained 10.5 %v/v PEG 400, and 2% dexpanthenol in phosphate buffer pH 5.5. The selected saponins were applied in the following concentrations: escin: 0.01 and 0.05 %w/v; glycyrrhizin: 1.0, 2.5 and 5.0 %w/v. The sample formulations were analyzed by HPLC on day 0 and day 7, the results being depicted in Table 3. Table 3: Storage stability of different aqueous formulations of 9.5 mg/ml FPV In a next step it was tried to even further increase the FPV concentration in the aqueous solvent system. The theoretical FPV starting concentration was adjusted to approximately 17 mg/ml, more precisely to 17.2 mg/ml (raw FPV) and 17.1 mg/ml (micronized FPV), using stock solutions comprising 85.45 mg/ml (raw) and 86.07 mg/ml (micronized) FPV in PEG 400. The final experimental samples contained […] and 2% dexpanthenol in phosphate buffer, pH 5.5, along with varying saponin concentrations: escin 0.10, 0.25 and 0.50 %w/v; glycyrrhizin: 1.0, 2.5 and 5.0 %w/v. The factual - as opposed to the calculated, theoretical - FPV concentrations were determined from the sample preparations by HPLC on day 0 and day 7. Table 4: Storage stability of different aqueous formulations of 17 mg/ml FPV In yet another experimental set-up a possible influence of the organic solvent PEG 400 on the solubility and stability of buffered aqueous sample preparations containing approximately 10 mg/ml FPV was investigated. PEG 400 was used at concentrations of 0, 2.5, 5.0, 7.5 and 10.0 %v/v. The samples were prepared in phosphate buffer, pH 5.5 with 2% dexpanthenol and including at least one of the saponins in the following concentrations: escin 0.01 and 0.05 %w/v; glycyrrhizin 1.0, 2.5 and 5.0 %w/v. […] The FPV contents in the sample preparations were analyzed by HPLC on day 0 and day 7, and the results are depicted in Table 5. In this experiment, only micronized FPV powder was used and was directly added to the aqueous formulations in an amount such as to yield a calculated (theoretical) concentration of 10 mg/ml. […]

The structures appear in SMILES notation. Converted amounts (≈) assume the structure as drawn.

On to `NC(=O)c1nc(F)cnc1O` [FPV, 6-fluoro-3-hydroxypyrazine-2-carboxamide], for which the solubility was less than 33 mg/mL in data set [1] (organic solvent or mixture, solvent Glycerol, read-out: Solubility, Visual Inspection Conc.); 90 mg/mL (≈ 573 mM) in data set [1] (organic solvent or mixture, solvent PEG 400, read-out: Solubility, Visual Inspection Conc.); less than 10 mg/mL in data set [1] (organic solvent or mixture, solvent PG, read-out: Solubility, Visual Inspection Conc.); 25 mg/mL (≈ 159 mM) in data set [1] (organic solvent or mixture, solvent PPG 400, read-out: Solubility, Visual Inspection Conc.); 5 mg/mL (≈ 31.8 mM) in data set [1] (solvent AD (distilled water), read-out: Solubility, Visual Inspection Conc.); approximately 4.5 mg/mL in data set [3] (25 °C, pure water, read-out: solubility in an aqueous solution). Moreover, the solubility was more than 10 mg/mL in data set [3] (aqueous buffer, stable pH 4 to 6, phosphate or citrate buffer system, read-out: solubility in an aqueous solution) and less than 5 mg/mL in data set [3] (aqueous solution without buffer, 25 °C, water, without buffer, regardless of the amount of FPV added, read-out: maximum solubility of FPV in an aqueous solution). Also, the “solubility in water” value in data set [2] is listed as “slightly soluble”. Further, the “highest starting concentration of dissolved FPV” value was 11.7 mg/mL in data set [3] (micronized FPV in phosphate buffer without saponins and without dexpanthenol); 11.5 mg/mL in data set [3] (raw FPV in phosphate buffer pH 5.5 including 5 %w/v glycyrrhizin).

The record behind these values is patent publication EP4516289A1, “ANTIVIRAL NASAL SPRAY COMPRISING FAVIPIRAVIR” (SPH Sine Pharmaceutical Laboratories Co., Ltd, priority 2023, dated 2025).
